Test results taken from patent US20240240226A1, “FLUOROGENIC ASSAY FOR RAPID SCREENING OF BACTERIAL BETA-LACTAMASE ACTIVITY” (The Board of Trustees of the Leland Stanford Junior …, priority 2021, published 2024).

Key:
K. pneumoniae = assay: Two-step filtration CDA/H2O2 urine assay, negative control K. pneumoniae; type: cell-based; details: K. pneumoniae without β-lactamase, concentrated from urine
Experimental: FIG. 4 illustrates the detection of lactam-resistant bacteria in urine samples. a) Illustration of the workflow in bacteria isolation and concentration from a urine sample for detection. The sample is first filtrated by a 5-μm filter to trap cells and large debris followed by a 0.22-μm filter to trap bacteria. The 0.22-μm filter is washed once before PBS/H2O2 (1 mM) is directed through the 0.22-μm filter in the opposite direction with a new syringe to recover the concentrated bacteria for detection in a plate reader. b) Longitudinal monitoring of fluorescence enhancement with CDA and concentrated E. coli, K. pneumoniae, K. pneumoniae/KPC, E. coli/TEM-1, E. coli/IMP-1, E. coli/KPC-3, E. cloacae/IMP, S. marcescens/SME, and E. coli/OXA-48 in the presence of H2O2 (1 mM). Star* indicate clinical isolates. The study was duplicated at room temperature with PBS as the buffer. The signal of CDA alone in PBS containing H2O2 (1 mM) was subtracted and the absolute values were plotted. The working concentration of CDA was 10 μM. Data were collected on a Tecan Safire microplate reader with excitation at 570 nm and emission at 600 nm. A.U. indicates arbitrary units. […]

[1] = Stability test in H2O2 in PBS; type: physicochemical; details: room temperature
Experimental: FIG. 2 illustrates the characterization of CDA with recombinant TEM-1 Bla, esterase, HRP, and H2O2. a) Stability test of CDA in different concentrations of H2O2 in PBS. The signal of PBS was subtracted and the absolute values were plotted. b) Fluorescence enhancement of CDA treated with esterase […], TEM-1 Bla (100 nM) and H2O2 (100 μM or 1 mM). c) Activation of CDA by esterase (1 μg/mL) and TEM-1 Bla (100 nM) with or without oxygen in the reaction. Glass flasks with working solution were continuously vacuumed to maintain a deoxidized environment. Samples were transferred and scanned immediate at each time point in a black 96 well plate. Error bars represent ±SD, n=3. d) Fluorescence enhancement of CDA treated with esterase (1 μg/mL), TEM-1 Bla (100 nM), HRP (1 unit/ml), and H2O2 (1 μM). e) Fluorescence enhancement of different concentrations of CDA treated with esterase (1 μg/mL), TEM-1 Bla (100 nM) and H2O2 (1 mM). f) Fluorescence enhancement of CDA treated with indicated amounts of β-lactamases, esterase (1 μg/mL) and H2O2 (1 mM) after incubation at room temperature for 2 h. […] Data were collected on a Tecan Safire microplate reader with excitation at 570 nm and emission at 600 nm. […]
As oxidation is the essential step in converting β-lactamase/esterase processed CDA to resorufin, the stability of CDA was evaluated in different concentrations of H2O2 (FIG. 2a). […]

CC(=O)Oc1ccc2c(c1)Oc1cc(OC(C)=O)ccc1N2C(=O)OCc1ccc(SCC2=C(C(=O)O)N3C(=O)[C@@H](NC(=O)Cc4ccccc4)[C@H]3SC2)cc1 [CDA, 3-(((4-(((3,7-diacetoxy-10H-phenoxazine-10-carbonyl)oxy)methyl)phenyl)thio)methyl)-8-oxo-7-(2-phenylacetamido)-5-thia-1-azabicyclo[4.2.0]oct-2-ene-2-carboxylic acid]
fluorescent signal of negative control (K. pneumoniae): almost undetectable | stability of the sulfur center in H2O2 (LC-MS) ([1]; H2O2 1 mM, 2 hours): stable | spontaneous hydrolysis in H2O2 ([1]; up to 1 mM H2O2 in PBS, within 2 hours): Almost no spontaneous hydrolysis
